Source: patent publication US20250205204A1, “Transcription Factor Brn2 Inhibitory Compounds for Use as Therapeutics” (The University of British Columbia, priority 2021, published 2025)

Tests used:
[1] = Metabolic stability in liver microsomes (MLM); format: in vitro ADME, mice; settings: 0.25 mg/mL protein; for half-life at 1 μM: mouse, liver microsomes, pH 7.4, 1 μM compound, read-out: T1/2 in mins (MLM); for Met Stab % (60 mins) MLM: percent remaining at 60 min, 1 μM compound, 1 mM NADPH
Experimental: Preparation of Potassium Phosphate Buffer, 50 mM (pH 7.4)
Potassium phosphate buffer (Kphos) was prepared by adding 0.647 g potassium phosphate monobasic (KH2PO4) and 3.527 g potassium phosphate dibasic (KH2PO4) to 400 mL of Milli-Q™ water. pH of the buffer was adjusted to 7.4 and volume was made up to 500 mL.
Preparation of Microsomes
Stock solutions of BRN2 inhibitors were prepared in DMSO at a concentration of 1 mM
Preparation of NADPH Solution
• Total Incubation volume: 100 μL • Compound concentration: 1 μM • Protein Concentration: 0.25 mg/mL • NADPH: 1 mM • Final DMSO contain: 0.1% • Number of replicates: 2 • Time points: 0, 5, 15, 30 and 60 min
From the above mix, 70 μL was added to individual wells of 96 well reaction plates and pre-incubated in a 37° C. water bath for 5 min. […] Reactions without NADPH and buffer controls (minus NADPH) at 0 min and 60 min were also incubated to rule out non-NADPH metabolism or chemical instability in the incubation buffer. All reactions were terminated using 100 μL of ice-cold acetonitrile containing internal standard at 0, 5, 15, 30 and 60 min.
Samples were monitored for parent compounds disappearance in MRM mode using LC-MS/MS.
The percent remaining of test compounds and positive control in each sample was determined by considering peak area ratio in the 0 minute sample as 100%. The Half-life of compounds in microsomes is calculated by formula: […]
In vitro intrinsic clearance (CL'int) (units in mL/min/kg) was calculated using the formula.
[formula] • For liver microsomes, scaling factor used was 45 mg microsomal protein per gm liver. • * Indicates liver weight (gm) which varies species wise. For mice the liver weights are 90 gm.

42D^ENZR cells = experiment: Cell proliferation, BRN2 expressing 42D cells (crystal violet); format: cell-based; settings: 42D (express BRN2) versus 16D (no BRN2) cells, about 72 hours; result in words
Experimental: Step 3: Cell Proliferation
Plate 42DE^NZR (˜7000 cells per well) and 16D^CRPC (˜5000 cells per well) cells in 96 well plate with a volume of 100 μL per well. • 2. Next day 1 mL aliquots of media are combined with 3× the desired concentration of compounds. The aliquots are vortexed and 50 μL of each 3× concentration is added to the 100 μL of media in each well to give the ix desired concentration.
The following are the desired concentrations:
Approximately 72 hours later, 17 μL of 10% Glutaraldehyde is added to each well and plates are placed on a shaker for 20-30 minutes. • 4. Media is washed off the fixed cells by slow submersion in a container of water. Then the water is removed by tapping the plate upside down. • 5. 75 μL of Crystal Violet™ solution is added into the 96 well plates and placed on a shaker for ˜30 minutes. • 6. Media is washed off the fixed cells by repeated slow submersion in a container of water and the plates are allowed to dry over-night. • 7. Next day, 75 μL of Sorensen Solution is accurately pipetted into each well. The plates placed on a shaker for ˜30 minutes. • 8. Absorbance is measured in the plate at 590 nm.
There is a distinction in TABLES 1 and 2 difference between “Active” and “Specific” or “Specificity”.

| Compound | half-life at 1 μM [1] [min] | Met Stab % (60 mins) MLM [1] [%] | Growth Specificity (42D^ENZR cells) |
| --- | --- | --- | --- |
| CN(/N=C1\CCc2ccccc21)c1nc2ccccc2s1 [7-30] | 11 | 1 | Non-specific. Effective on both 42D and 16D cells |
| N#Cc1ccc2nc(N/N=C3\CCc4ccccc43)sc2c1 [7-33] | 47 | 35 | Non-specific. Effective on both 42D and 16D cells |
| Clc1cccc2nc(N/N=C3\CCc4ccccc43)sc12 [7-34] | 6 | 0 | Non-specific. Effective on both 42D or 16D cells |
| FC1(F)Cc2ccccc2/C1=N/Nc1nc2ccccc2s1 [7-35] | 12 | 1 | Not effective on 42D or 16D cells |
| c1ccc2c(c1)Cc1nn(-c3nc4ccccc4s3)cc1-2 [7-37] | 16 | 7 | Not effective on 42D or 16D cells |
| Clc1ccc2c(c1)/C(=N\Nc1nc3ccccc3s1)CC2 [7-38] | 8 | 1 | Not effective on 42D or 16D cells |
| Fc1cc(F)c2nc(N/N=C3\CCc4ccccc43)sc2c1 [7-39] | 17 | 7 | Not effective on 42D or 16D cells |
| O=C1/C(=N\Nc2nc3ccccc3s2)CC2C=CC=CC12 (stereo not drawn) [7-41] | 33 | 28 | Not effective on 42D or 16D cells |
| c1ccc2c(c1)CCC2c1cnn(-c2nc3ccccc3s2)c1 (stereo not drawn) [7-43] | 10 | 1 | Not effective on 42D or 16D cells |
| c1ccc2c(c1)CCC2c1ccc(-c2nc3ccccc3s2)o1 (stereo not drawn) [7-44] | 10 | 1 | Not effective on 42D or 16D cells |
| Fc1cc(Br)c2c(c1)/C(=N\Nc1ccc3ccccc3n1)CC2 [7-45] | 21 | 14 | Not effective on 42D or 16D cells |
| Cc1ccc2nc(N/N=C3/CCc4ccccc43)sc2c1 [7-46] | 13 | 5 | Not effective on 42D or 16D cells |
| Fc1ccc2nc(N/N=C3/CCc4ccccc43)sc2c1 [7-47] | 7 | 0 | Not effective on 42D or 16D cells |
| c1ccc2c(c1)CC/C2=N/Nc1ccc2ccccc2c1 [7-48] | 22 | 14 | Not effective on 42D or 16D cells |
| c1ccc2c(c1)CN(Nc1nc3ccccc3s1)C2 [7-49] | 14 | 1 | Not effective on 42D or 16D cells |
